The experiment deals with CD2F1 mice, L1210 leukemia ip, survival T/C. The experiment can be described thus: NCI In Vivo Anticancer Drug Screen. Data for tumor model L1210 Leukemia (intraperitoneal) in CD2F1 (CDF1) mice. To be noted: endpoint: mean survival time, higher = longer survival. Summed up:
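Mice carrying a transplanted tumor received test compound or vehicle alone. The value is the measurement in the treated group divided by that in the vehicle-treated control group.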

[1] abbreviates: dose: 100.0 mg/kg/injection, schedule: Q04DX002 (ip), vehicle: saline with Tween-80.
[2] abbreviates: dose: 200.0 mg/kg/injection, schedule: Q04DX002 (ip), vehicle: saline with Tween-80.
Setting [3] is: dose: 400.0 mg/kg/injection, schedule: Q04DX002 (ip), vehicle: saline with Tween-80.
The mark [4] stands for this setting: dose: 100.0 mg/kg/injection, schedule: Q01DX009 (ip), vehicle: saline with Tween-80.
Setting [5] is: dose: 100.0 mg/kg/injection, schedule: Q04DX003 (ip), vehicle: saline with Tween-80.
Where [6] appears, read: dose: 200.0 mg/kg/injection, schedule: Q01DX009 (ip), vehicle: saline with Tween-80.
The mark [7] stands for this setting: dose: 200.0 mg/kg/injection, schedule: Q04DX003 (ip), vehicle: saline with Tween-80.
The mark [8] stands for this setting: dose: 400.0 mg/kg/injection, schedule: Q01DX009 (ip), vehicle: saline with Tween-80.
Where [9] appears, read: dose: 400.0 mg/kg/injection, schedule: Q04DX003 (ip), vehicle: saline with Tween-80.
Setting [10] is: dose: 50.0 mg/kg/injection, schedule: Q01DX009 (ip), vehicle: saline with Tween-80.
Where [11] appears, read: dose: 400.0 mg/kg/injection, schedule: Q01DX009 (ip), vehicle: saline sonified.

Where “and” joins values, the source holds several entries; their conditions need not be identical. Equal entries are not always repeated. Inconclusive results and toxic doses are left out. Residues, ends and D or L forms follow the SMILES beside them. *: point of attachment. Cbz = O=C(OCc1ccccc1)*; OBn = c1ccc(CO*)cc1

On to `O=C(N/N=C/c1ccccc1)c1ccc(Cl)cc1Cl`, for which the T/C is, setting by setting: (dose: 100.0 mg/kg/injection, schedule: Q01DX001 (ip), vehicle: Klucel (hydroxypropylcellulose) (HPC)) 100 % of control; (dose: 100.0 mg/kg/injection, schedule: Q01DX009 (ip), vehicle: Klucel (hydroxypropylcellulose) (HPC)) 100 % of control; (dose: 200.0 mg/kg/injection, schedule: Q01DX001 (ip), vehicle: Klucel (hydroxypropylcellulose) (HPC)) 97 % of control; (dose: 200.0 mg/kg/injection, schedule: Q01DX009 (ip), vehicle: Klucel (hydroxypropylcellulose) (HPC)) 94 % of control; (dose: 400.0 mg/kg/injection, schedule: Q01DX001 (ip), vehicle: Klucel (hydroxypropylcellulose) (HPC)) 101 % of control; (dose: 400.0 mg/kg/injection, schedule: Q01DX009 (ip), vehicle: Klucel (hydroxypropylcellulose) (HPC)) 91 % of control.
Take `CC(=O)N1NC2C(=O)N(C3CCCCC3)CC2C1c1ccc(N(C)C)cc1` (configuration not stated): the T/C by setting is: (dose: 100.0 mg/kg/injection, schedule: Q01DX001 (ip), vehicle: saline with Tween-80) 100 % of control; under setting [1], 103 % of control; (dose: 200.0 mg/kg/injection, schedule: Q01DX001 (ip), vehicle: saline with Tween-80) 100 % of control; under setting [2], 100 % of control; (dose: 400.0 mg/kg/injection, schedule: Q01DX001 (ip), vehicle: saline with Tween-80) 100 % of control; under setting [3], 92 % of control.
For `CN(C)N=Nc1cccc(C(N)=O)c1`, the T/C (dose: 5.0 mg/kg/injection, schedule: Q01DX009 (ip), vehicle: Klucel (hydroxypropylcellulose) (HPC)) was 112 % of control; the T/C (dose: 10.0 mg/kg/injection, schedule: Q01DX009 (ip), vehicle: Klucel (hydroxypropylcellulose) (HPC)) is 113 % of control; the T/C (dose: 20.0 mg/kg/injection, schedule: Q01DX009 (ip), vehicle: Klucel (hydroxypropylcellulose) (HPC)) was 117 % of control; the T/C (dose: 80.0 mg/kg/injection, schedule: Q01DX009 (ip), vehicle: Klucel (hydroxypropylcellulose) (HPC)) was 113 % of control; the T/C (dose: 108.0 mg/kg/injection, schedule: Q01DX009 (ip), vehicle: Klucel (hydroxypropylcellulose) (HPC)) was 93 % of control.
In the case of `CN1CC(=O)N=C1N.CN1CC(=O)N=C1N.[Cl][Pt][Cl]`, the T/C was 102 % of control (dose: 3.13 mg/kg/injection, schedule: Q04DX003 (ip), vehicle: water); 96 % of control (dose: 6.25 mg/kg/injection, schedule: Q04DX003 (ip), vehicle: water); 96 % of control (dose: 12.5 mg/kg/injection, schedule: Q04DX003 (ip), vehicle: water); 100 % of control (dose: 25.0 mg/kg/injection, schedule: Q04DX003 (ip), vehicle: water); 102 % of control (dose: 50.0 mg/kg/injection, schedule: Q04DX003 (ip), vehicle: water); 92 % of control (dose: 100.0 mg/kg/injection, schedule: Q04DX003 (ip), vehicle: water).
Turning to `O=C(O)c1ccccc1C(=O)NCCc1c[nH]c2ccccc12`, the T/C under setting [4] was 104 % of control; the T/C under setting [5] is 96 % of control; the T/C under setting [6] is 96 % of control; the T/C under setting [7] was 96 % of control; the T/C under setting [8] was 102 % of control; the T/C under setting [9] was 95 % of control.
In the case of `CCCC(=O)OCc1ccc(Cl)c(Cl)c1`, the T/C reads like this: under setting [10], 97 % of control; under setting [4], 92 % of control; under setting [5], 91 % of control; under setting [7], 87 % of control.
For `CC(=O)Nc1ccc(C(=O)c2ccc(C(=O)O)cc2)cc1`, the T/C is 92 % of control and 98 % of control under setting [1]; 95 % of control and 100 % of control under setting [5]; 93 % of control and 96 % of control under setting [2]; 104 % of control and 109 % of control under setting [7]; 96 % of control and 107 % of control under setting [3]; 114 % of control and 104 % of control under setting [9].
As to `OCCNc1ccc(I)cc1`, the T/C under setting [5] was 105 % of control, the T/C under setting [7] is 112 % of control and the T/C under setting [9] is 103 % of control.
Take `CCOC(=O)c1[nH]cnc1/N=N/N(C)CCO`: the T/C is 106 % of control under setting [5]; 111 % of control under setting [7]; 160 % of control (dose: 264.0 mg/kg/injection, schedule: Q01DX009 (ip), vehicle: saline sonified); 162 % of control under setting [11]; 150 % of control under setting [8]; 109 % of control under setting [9]. Further, the T/C (dose: 600.0 mg/kg/injection, schedule: Q01DX009 (ip), vehicle: saline sonified) was 165 % of control.
Turning to `CC(C)(C)OC(=O)NNC(c1ccccc1)c1ccccc1`, the T/C is, setting by setting: under setting [4], 101 % of control; under setting [5], 98 % of control; under setting [6], 95 % of control; under setting [7], 95 % of control; under setting [9], 97 % of control.
As for `CNC(=O)C(=O)NC`, the T/C under setting [4] is 96 % of control; the T/C under setting [5] was 101 % of control; the T/C under setting [6] was 98 % of control; the T/C under setting [7] is 98 % of control; the T/C under setting [8] was 98 % of control; the T/C under setting [9] was 101 % of control.
For the molecule `O=C(CNC(=O)OCc1ccccc1)NCC(=O)OCc1ccccc1` (Cbz-Gly-Gly-OBn), the T/C is 93 % of control under setting [4]; 96 % of control under setting [5]; 92 % of control under setting [6]; 93 % of control under setting [7]; 89 % of control under setting [8]; 93 % of control under setting [9].
In the case of `Cc1cc(C)c(C)c(C(=O)C(=O)c2ccccc2)c1`, the T/C reads like this: (dose: 75.0 mg/kg/injection, schedule: Q01DX001 (ip), vehicle: other) 93 % of control; (dose: 150.0 mg/kg/injection, schedule: Q01DX001 (ip), vehicle: other) 94 % of control; (dose: 300.0 mg/kg/injection, schedule: Q01DX001 (ip), vehicle: other) 100 % of control.
For `CC1CC(C)(C)CC2(C1)OCC(CCl)O2` (configuration not stated), the T/C (dose: 100.0 mg/kg/injection, schedule: Q01DX009 (ip), vehicle: saline sonified) was 95 % of control; the T/C (dose: 200.0 mg/kg/injection, schedule: Q01DX009 (ip), vehicle: saline sonified) was 87 % of control; the T/C under setting [11] is 106 % of control.
Turning to `N#CCc1ccc(Cl)c(Cl)c1`, the T/C is, setting by setting: (dose: 25.0 mg/kg/injection, schedule: Q01DX009 (ip), vehicle: saline with Tween-80) 102 % of control; (dose: 25.0 mg/kg/injection, schedule: Q04DX003 (ip), vehicle: saline with Tween-80) 111 % of control; under setting [10], 100 % of control; (dose: 50.0 mg/kg/injection, schedule: Q04DX003 (ip), vehicle: saline with Tween-80) 94 % of control; under setting [5], 102 % of control.
As to `C=CCN(CC=C)P(=O)(N(CC=C)CC=C)N1CC1`, the T/C is 151 % of control (dose: 11.0 mg/kg/injection, schedule: Q01DX015 (ip), vehicle: saline) and 114 % of control (dose: 17.0 mg/kg/injection, schedule: Q01DX015 (ip), vehicle: saline).
As for `COc1cc(Cl)ccc1NC(=O)Oc1ccc(Cl)cc1Br`, the T/C is 96 % of control under setting [10], 96 % of control under setting [4] and 96 % of control under setting [6].

Source of the values: PubChem BioAssay AID256 (DTP/NCI, 2004).
